Experimental data as given in paper PMC3509384 (Anesthesiology, 2012).
Where two headings read alike, the source gives them in different places.

Assays:
rats = assay: Loss of righting reflexes; assay type: in vivo, Sprague-Dawley rats; conditions: for R/S ED50 ratio: ED50 for LORR of (R)-form versus (S)-form of the diastereometric pair; for R/S ED50 ratio / Slope of Duration vs. Log Dose ± SD / ED50 ± SD for loss of righting reflexes (LORR): rats; for Slope of Duration vs. Log Dose ± SD: duration of LORR vs logarithm of dose; for Slope of Duration vs. Log Dose ± SD / ED50 ± SD for loss of righting reflexes (LORR) / death of rat after dosing: intravenous bolus; for ED50 ± SD for loss of righting reflexes (LORR): method of Waud; for death of rat after dosing: one rat, 20 mg/kg dose
[1] = In vitro metabolic half-life in pooled rat blood; assay type: in vitro ADME, Sprague-Dawley rats; conditions: for Blood Half-Life (95% CI): pooled rat blood, 37°C, 200 µM
[2] = Octanol:water partition coefficient; assay type: physicochemical; conditions: water buffered with 10 mM Tris (pH 7.4)
[3] = ref Pejo et al.[8]; cited from earlier work

Molecule | R/S ED50 ratio (rats) | Slope of Duration vs. Log Dose ± SD (rats) | ED50 ± SD for loss of righting reflexes (LORR) (rats) [mg/kg] | Blood Half-Life (95% CI) [1] | Octanol/Water Partition Coefficient ± SD [2] | Octanol/Water Partition Coefficient ± SD [3] | death of rat after dosing (rats) | half-life at 200 µM ([1]; Sprague-Dawley, rat, pooled heparinised whole blood) [h]
β-methyl-methoxycarbonyl etomidate | 1.2 |  |  |  |  |  |  | 
COC(=O)C(OC(=O)c1cncn1C(C)c1ccccc1)C(C)C (stereo not drawn) [isopropyl-methoxycarbonyl metomidate] | 3.0 |  |  |  |  |  |  | 
α-methyl-methoxycarbonyl etomidate | 1.7 |  |  |  |  |  |  | 
COC(=O)CCOC(=O)c1cncn1[C@H](c1ccccc1)C(C)C [(S)-isopropyl- methoxycarbonyl metomidate] |  | 12.1 ± 1.1 min/(log mg/kg) | 1.2 ± 0.19 | 15.5 (11.6–23.1) min | 2860 ± 67 |  |  | 
COC(=O)C[C@H](C)OC(=O)c1cncn1[C@H](C)c1ccccc1 [β-(S)-methyl- methoxycarbonyl etomidate] |  | 2.0 ± 0.5 min/(log mg/kg) | 2.9 ± 0.3 | 0.72 (0.56–0.98) min | 484 ± 12 |  |  | 
CCOC(=O)c1cncn1[C@H](C)c1ccccc1 [Etomidate, (R)-ethyl-1-(1-phenylethyl)-1H-imidazole-5-carboxylate, reference compound] |  | 24.6 ± 4.7 min/(log mg/kg) |  |  |  | 800 ± 180 |  | 
COC(=O)CC(C)(C)OC(=O)c1cncn1C(C)c1ccccc1 (stereo not drawn) [β-dimethyl- methoxycarbonyl etomidate] |  | 11.9 ± 0.6 min/(log mg/kg) | 1.9 ± 0.3 | 23.4 (19.6–28.9) min | 1580 ± 40 |  |  | 
COC(=O)COC(=O)c1cncn1[C@H](C)c1ccccc1 [Methoxycarbonyl metomidate] |  | 1.6 ± 0.4 min/(log mg/kg) | 11.1 ± 0.8 | <0.03 min | 159 ± 15 |  |  | 
COC(=O)C(C)(C)OC(=O)c1cncn1[C@H](C)c1ccccc1 [Dimethyl- methoxycarbonyl metomidate] |  | 9.6 ± 0.8 min/(log mg/kg) | 0.72 ± 0.16 | 8.7 (7.4–10.7) min | 660 ± 110 |  | died | 
COC(=O)[C@@H](C)COC(=O)c1cncn1[C@H](C)c1ccccc1 [α-(S)-methyl- methoxycarbonyl etomidate] |  | 2.4 ± 0.3 min/(log mg/kg) | 3.1 ± 0.4 | 0.76 (0.58–1.0) min | 530 ± 170 |  |  | 
COC(=O)CCOC(=O)c1cncn1[C@H](C)c1ccccc1 [Methoxycarbonyl etomidate] |  | 1.0 ± 0.3 min/(log mg/kg) | 5.3 ± 1.5 | 0.41 (0.31–0.60) min | 190 ± 25 |  |  | 
COC(=O)c1cncn1C(C)c1ccccc1 (stereo not drawn) [Metomidate, reference compound] |  | 33.0 ± 3.9 min/(log mg/kg) |  |  |  |  |  | 2.38
COC(=O)[C@H](C)COC(=O)c1cncn1[C@H](C)c1ccccc1 [α-(R)-methyl- methoxycarbonyl etomidate] |  | 2.6 ± 0.3 min/(log mg/kg) | 5.2 ± 0.5 | 0.19 (0.17–0.22) min | 670 ± 120 |  |  | 
methyl-methoxycarbonyl metomidate | 2.7 |  |  |  |  |  |  | 
COC(=O)C[C@@H](C)OC(=O)c1cncn1[C@H](C)c1ccccc1 [β-(R)-methyl- methoxycarbonyl etomidate] |  | 2.9 ± 0.8 min/(log mg/kg) | 3.5 ± 0.6 | 0.91 (0.76–1.1) min | 500 ± 24 |  |  | 
Cyclopropyl- methoxycarbonyl metomidate |  | 6.9 ± 0.5 min/(log mg/kg) | 0.69 ± 0.04 | 0.57 (0.49–0.68) min | 420 ± 11 |  |  | 
COC(=O)[C@@H](C)OC(=O)c1cncn1[C@H](C)c1ccccc1 [(R)-methyl- methoxycarbonyl metomidate] |  | 4.6 ± 0.7 min/(log mg/kg) | 9.6 ± 1.9 | <0.03 min | 380 ± 15 |  |  | 
COC(=O)[C@H](C)OC(=O)c1cncn1[C@H](C)c1ccccc1 [(S)-methyl- methoxycarbonyl metomidate] |  | 1.9 ± 0.2 min/(log mg/kg) | 3.5 ± 0.4 | 0.14 (0.08–0.62) min | 330 ± 16 |  |  | 
COC(=O)CCOC(=O)c1cncn1[C@@H](c1ccccc1)C(C)C [(R)-isopropyl- methoxycarbonyl metomidate] |  | 6.6 ± 1.3 min/(log mg/kg) | 3.6 ± 0.8 | 0.15 (0.15–0.16) min | 3830 ± 310 |  | died | 
COC(=O)C(C)(C)COC(=O)c1cncn1[C@H](C)c1ccccc1 [α-dimethyl- methoxycarbonyl etomidate] |  | 9.8 ± 1.5 min/(log mg/kg) | 2.4 ± 1 | 2.6 (1.9–4.2) min | 2240 ± 150 |  |  | 
